The values below are quoted from earlier work in paper PMC6854850 (MicrobiologyOpen, 2019).

This series deals with T1, OmpP (Escherichia coli, UniProt P34210).
T1 sequence (P34210 24-315): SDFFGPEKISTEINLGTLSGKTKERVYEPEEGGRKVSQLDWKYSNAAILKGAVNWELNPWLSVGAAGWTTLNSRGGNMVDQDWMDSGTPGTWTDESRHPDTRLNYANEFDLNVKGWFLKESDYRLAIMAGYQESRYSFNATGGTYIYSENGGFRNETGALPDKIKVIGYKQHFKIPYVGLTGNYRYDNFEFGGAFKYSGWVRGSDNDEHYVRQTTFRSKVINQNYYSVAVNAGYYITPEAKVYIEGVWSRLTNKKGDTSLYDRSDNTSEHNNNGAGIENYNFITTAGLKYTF
Conditions: ref Hwang et al., 2007.

Turning to protamine, the “cleavage of AMP by OmpP, in words” value is “has been shown to cleave”.
